Assay results: patent US20120004228A1, “Bis Aromatic Compounds for Use as LTC4 Synthase Inhibitors” (BIOLIPOX AB, priority 2009, published 2012)

Molecular target: T1, Recombinant human LTC4 synthase (Homo sapiens, UniProt Q16873)
T1 construct: made in house; host or cells: Pichia pastoris ('Piccia pastoralis' [sic])
T1 sequence (Q16873 1-150): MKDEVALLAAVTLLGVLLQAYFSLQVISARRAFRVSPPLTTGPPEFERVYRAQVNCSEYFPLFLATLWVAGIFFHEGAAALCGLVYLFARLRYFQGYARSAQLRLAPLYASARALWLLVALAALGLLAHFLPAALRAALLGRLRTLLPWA
Test: In vitro LTC4 synthase assay (LTA4 to LTC4, HTRF detection)
Assay type: biochemical
Conditions: not given

Row | Structure (SMILES) | IC50 [nM]
1 | CN(c1ccc(Cl)cc1)c1ccc(C(=O)c2cc(C(=O)O)cc(N(CC3(C)COC3)c3ccccc3F)c2)cc1 [10:28, 3-{4-[(4-Chlorophenyl)(methyl)amino]benzoyl}-5-{(2-fluorophenyl)[(3-methyl-oxetan-3-yl)methyl]amino}benzoic acid] | 68
2 | CN(c1ccc(Cl)cc1)c1ccc(C(=O)c2cc(C(=O)O)cc(N(CC3OCCO3)c3ccccc3)c2)cc1 [10:29, 3-{[(1,3-Dioxolan-2-yl)methyl](phenyl)amino}-5-{4-[(4-chlorophenyl)(methyl)-amino]benzoyl}benzoic acid] | 40
3 | CN(c1ccc(Cl)cc1)c1ccc(C(=O)c2cc(C(=O)O)cc(N(CC3CCC3)c3ccccc3)c2)cc1 [10:30, 3-{4-[(4-Chlorophenyl)(methyl)amino]benzoyl}-5-[(cyclobutylmethyl)(phenyl)-amino]benzoic acid] | 147
4 | C=CCCC(=O)N(c1ccccc1)c1cc(C(=O)O)cc(C(=O)c2ccc(N(C)c3ccc(Cl)cc3)cc2)c1 [10:32, 3-{4-[(4-Chlorophenyl)(methyl)amino]benzoyl}-5-[(N-phenyl)pent-4-enamido]-benzoic acid] | 662
5 | CCC(CC)C(=O)N(c1ccccc1)c1cc(C(=O)O)cc(C(=O)c2ccc(N(C)c3ccc(Cl)cc3)cc2)c1 [10:33, 3-{4-[(4-Chlorophenyl)(methyl)amino]benzoyl}-5-(2-ethyl-N-phenylbutan-amido)benzoic acid] | 757
6 | CN(c1ccc(Cl)cc1)c1ccc(C(=O)c2cc(C(=O)O)cc(N(C(=O)C3CCOCC3)c3ccccc3)c2)cc1 [10:34, 3-{4-[(4-Chlorophenyl)(methyl)amino]benzoyl}-5-[(N-phenyl)-4-tetrahydro-pyrancarboxamido]benzoic acid] | 807
7 | CC(C)CN(c1ccccc1)c1cc(C(=O)O)cc(C(=O)c2ccc(N(C)c3ccc(Cl)cc3)cc2)c1 [10:35, 3-{4-[(4-Chlorophenyl)(methyl)amino]benzoyl}-5-[isobutyl(phenyl)amino]-benzoic acid] | 176
8 | CN(c1ccc(Cl)cc1)c1ccc(C(=O)c2cc(C(=O)O)cc(N(CC3CCCCO3)c3ccccc3)c2)cc1 (stereo not shown) [10:36, 3-{4-[(4-Chlorophenyl)(methyl)amino]benzoyl}-5-{pheny[(tetrahydropyran-2-yl)methyl]amino}benzoic acid] | 25
9 | CN(c1ccc(Cl)cc1)c1ccc(C(=O)c2cc(C(=O)O)cc(N(CCCC(F)(F)F)c3ccccc3)c2)cc1 [10:37, 3-{4-[(4-Chlorophenyl)(methyl)amino]benzoyl}-5-[phenyl(4,4,4-trifluorobutyl)-amino]benzoic acid] | 252
10 | CN(c1ccc(Cl)cc1)c1ccc(C(=O)c2cc(C(=O)O)cc(N(C(=O)CC3CCCC3)c3ccccc3)c2)cc1 [10:39, 3-{4-[(4-Chlorophenyl)(methyl)amino]benzoyl}-5-[2-cyclopentyl-(N-phenyl)-acetamido]benzoic acid] | 192
11 | CN(c1ccc(Cl)cc1)c1ccc(C(=O)c2cc(OCc3ccccc3)cc(C(=O)O)c2)nc1 [11:2, 3-Benzyloxy-5-{5-[(4-chlorophenyl)(methyl)amino]picolinoyl}benzoic acid] | 462
12 | COc1cccc(COc2cc(C(=O)O)cc(C(=O)c3ccc(N(C)c4ccc(Cl)cc4)cn3)c2)c1 [11:3, 3-{5-[(4-Chlorophenyl)(methyl)amino]picolinoyl}-5-(3-methoxybenzyloxy)-benzoic acid] | 250
13 | CN(c1ccc(Cl)cc1)c1ccc(C(=O)c2cc(OCc3cccc(F)c3)cc(C(=O)O)c2)nc1 [11:4, 3-{5-[(4-Chlorophenyl)(methyl)amino]picolinoyl}-5-(3-fluorobenzyloxy)benzoic acid] | 454
14 | CN(c1ccc(Cl)cc1)c1ccc(C(=O)c2cc(OCc3ccc4c(c3)OCO4)cc(C(=O)O)c2)nc1 [11:5, 3-{5-[(4-Chlorophenyl)(methyl)amino]picolinoyl}-5-(3,4-methylenedioxy-benzyloxy)benzoic acid] | 584
15 | CN(c1ccc(Cl)cc1)c1ccc(C(=O)c2cc(C(=O)O)cc(-c3ccc(Cl)cc3)c2)nc1 [12:2, 4′-Chloro-5-{5-[(4-chlorophenyl)(methyl)amino]picolinoyl}biphenyl-3-carboxylic acid] | 445
16 | CN(c1ccc(Cl)cc1)c1ccc(C(=O)c2cc(C(=O)O)cc(-c3ccccc3Cl)c2)nc1 [12:3, 2′-Chloro-5-{5-[(4-chlorophenyl)(methyl)amino]picolinoyl}biphenyl-3-carboxylic acid] | 234
17 | CN(c1ccc(Cl)cc1)c1ccc(C(=O)c2cc(Sc3ccccc3)cc(C(=O)O)c2)nc1 [19:4, 3-{5-[(4-Chlorophenyl)(methyl)amino]picolinoyl}-5-phenylsulfanylbenzoic acid] | 211
18 | CCCCCCC(=O)Nc1cc(C(=O)O)cc(C(=O)c2ccc(N(C)c3ccc(Cl)cc3)cc2)c1 [Example 1:2, 3-{4-[(4-Chlorophenyl)(methyl)amino]benzoyl}-5-heptylamidobenzoic acid] | 139

Row | Structure (SMILES) | IC50 [nM]
19 | CN(c1ccc(Cl)cc1)c1ccc(C(=O)c2cc(C(=O)O)cc(C(=O)Nc3ccccc3)c2)nc1 [Example 2:1, 3-{5-[(4-Chlorophenyl)(methyl)aminol]picolinoyl}-5-(phenylcarbamoyl)benzoic acid] | 449
20 | CN(c1ccc(Cl)cc1)c1ccc(C(=O)c2cc(NC(=O)c3cccc(C(F)(F)F)c3)cc(C(=O)O)c2)nc1 [Example 2:7, 3-{5-[(4-Chlorophenyl)(methyl)amino]picolinoyl}-5-[3-(trifluoromethyl)benzamido]-benzoic acid] | 549
21 | CN(c1ccc(Cl)cc1)c1ccc(C(=O)c2cc(C(=O)O)cc(C(=O)Nc3ccccc3)c2)cc1 [Example 2:11] | 694
22 | O=C(O)c1cc(Nc2ccc(Cl)cc2)cc(C(=O)c2ccc(Nc3ccc(Cl)cc3)cc2)c1 [Example 3, 3-(4-Chorophenylamino)-5-[4-(4-chlorophenylamino)benzoyl]benzoic acid] | 146
23 | CCCCCCC(=O)Nc1ccc(C(=O)c2ccc(Nc3ccc(Cl)cc3)cc2C(=O)O)cc1 [Example 4:1, 5-(4-Chlorophenylamino)-2-(4-heptylamidobenzoyl)benzoic acid] | 646
24 | CN(c1ccc(Cl)cc1)c1ccc(C(=O)c2ccc(NC(=O)c3cccc(Cl)c3)cc2)c(C(=O)O)c1 [Example 4:2, 2-[4-(3-Chlorobenzamido)benzoyl]-5-[(4-chlorophenyl)(methyl)amino)-benzoic acid] | 703
25 | CN(c1ccc(Cl)cc1)c1ccc(C(=O)c2ccc(NS(=O)(=O)c3ccc(OC(F)(F)F)cc3)cc2)c(C(=O)O)c1 [Example 5, 5-[(4-Chlorophenyl)(methyl)amino]-2-[4-(4-trifluoromethoxybenzenesulfonamido)-benzoyl]benzoic acid] | 549
26 | O=C(O)c1cc(Nc2ccc(Cl)cc2)ccc1C(=O)c1ccc(Nc2ccc(Cl)cc2)cc1 [Example 6:1, 5-(4-Chlorophenylamino)-2-[4-(4-chlorophenylamino)benzoyl]benzoic acid] | 625
27 | CCCCOc1ccc(S(=O)(=O)Nc2cc(C(=O)O)cc(C(=O)c3ccc(Nc4ccc(Cl)cc4)cc3)c2)cc1 [Example 7, 3-(4-Butoxybenzensulfonamido)-5-[4-(4-chlorophenylamino)benzoyl]benzoic acid] | 89
28 | CN(c1ccc(Cl)cc1)c1ccc(C(=O)c2cc(Oc3ccccc3)cc(C(=O)O)c2)nc1 [Example 8:1, 3-{5-[(4-Chlorophenyl)(methyl)aminol]picolinoyl}-5-phenoxybenzoic acid] | 67
29 | CN(c1ccc(Cl)cc1)c1ccc(C(=O)c2cc(Oc3ccc(F)c(F)c3)cc(C(=O)O)c2)cc1 [Example 8:9, 3-{4-[(4-Chlorophenyl)(methyl)amino]benzoyl}-5-(3,4-difluorophenoxy)benzoic acid] | 30
30 | CN(c1ccc(Cl)cc1)c1ccc(C(=O)c2cc(C(=O)O)cc(N(C)c3cccc(Cl)c3)c2)nc1 [Example 9:1, 3-[(3-Chlorophenyl)(methyl)amino]-5-{5-[(4-chlorophenyl)(methyl)amino]-picolinoyl}benzoic acid] | 147
31 | CN(c1ccc(Cl)cc1)c1ccc(C(=O)c2cc(Nc3cccc(Cl)c3)cc(C(=O)O)c2)nc1 [Example 9:2, 3-{5-[(4-Chlorophenyl)(methyl)amino]picolinoyl}-5-(3-chlorophenylamino)-benzoic acid] | 248
32 | CN(c1ccc(Cl)cc1)c1ccc(C(=O)c2cc(C(=O)O)cc(N(CC3CC3)c3ccccc3)c2)nc1 [Example 9:7, 3-{5-[(4-Chlorophenyl)(methyl)amino]picolinoyl}-5-[(cyclopropylmethyl)(phenyl)-amino]benzoic acid] | 32
33 | CN(c1ccc(Cl)cc1)c1cc(C(=O)O)cc(C(=O)c2ccc(N(CC3CC3)c3ccc(Cl)cc3)cn2)c1 [Example 9:16, 3-{5-[(4-Chlorophenyl)(cyclopropylmethyl)amino]picolinoyl}-5-[(4-chlorophenyl)-(methyl)amino]benzoic acid] | 17
34 | CC(=O)N(c1ccccc1)c1cc(C(=O)O)cc(C(=O)c2ccc(N(C)c3ccc(Cl)cc3)cn2)c1 [Example 9:23, 3-{5-[(4-Chlorophenyl)(methyl)amino]picolinoyl}-5-(N-phenylacetamido)benzoic acid] | 199
35 | CN(c1ccc(Cl)cc1)c1ccc(C(=O)c2cc(C(=O)O)cc(N(CC(C)(C)O)c3ccccc3)c2)nc1 [Example 9:27, 3-{5-[(4-Chlorophenyl)(methyl)amino]picolinoyl}-5-[(2-hydroxy-2-methylpropyl)-(phenyl)amino]benzoic acid] | 31
36 | CN(c1ccc(Cl)cc1)c1ccc(C(=O)c2cc(C(=O)O)cc(N(C)c3ccc(Cl)cc3)c2)cc1 [Example 10:1, 3-[(4-Chlorophenyl)(methyl)amino]-5-{4-[(4-chlorophenyl)(methyl)amino]benzoyl}-benzoic acid] | 41

Same assay, conditions: 5 min; total concentration of title compound in the assay 10 μM

Row | Structure (SMILES) | inhibition at 10 µM [%]
37 | CCCCCCC(=O)Nc1cc(C(=O)O)cc(C(=O)c2ccc(N(C)c3ccc(Cl)cc3)cc2)c1 [Example 1:2, 3-{4-[(4-Chlorophenyl)(methyl)amino]benzoyl}-5-heptylamidobenzoic acid] | 94
38 | O=C(O)c1cc(Nc2ccc(Cl)cc2)cc(C(=O)c2ccc(Nc3ccc(Cl)cc3)cc2)c1 [Example 3, 3-(4-Chorophenylamino)-5-[4-(4-chlorophenylamino)benzoyl]benzoic acid] | 99
39 | CCCCCCC(=O)Nc1ccc(C(=O)c2ccc(Nc3ccc(Cl)cc3)cc2C(=O)O)cc1 [Example 4:1, 5-(4-Chlorophenylamino)-2-(4-heptylamidobenzoyl)benzoic acid] | 98
40 | CN(c1ccc(Cl)cc1)c1ccc(C(=O)c2ccc(NC(=O)c3cccc(Cl)c3)cc2)c(C(=O)O)c1 [Example 4:2, 2-[4-(3-Chlorobenzamido)benzoyl]-5-[(4-chlorophenyl)(methyl)amino)-benzoic acid] | 100
41 | CN(c1ccc(Cl)cc1)c1ccc(C(=O)c2ccc(NS(=O)(=O)c3ccc(OC(F)(F)F)cc3)cc2)c(C(=O)O)c1 [Example 5, 5-[(4-Chlorophenyl)(methyl)amino]-2-[4-(4-trifluoromethoxybenzenesulfonamido)-benzoyl]benzoic acid] | 100
42 | O=C(O)c1cc(Nc2ccc(Cl)cc2)ccc1C(=O)c1ccc(Nc2ccc(Cl)cc2)cc1 [Example 6:1, 5-(4-Chlorophenylamino)-2-[4-(4-chlorophenylamino)benzoyl]benzoic acid] | 96
43 | CCCCOc1ccc(S(=O)(=O)Nc2cc(C(=O)O)cc(C(=O)c3ccc(Nc4ccc(Cl)cc4)cc3)c2)cc1 [Example 7, 3-(4-Butoxybenzensulfonamido)-5-[4-(4-chlorophenylamino)benzoyl]benzoic acid] | 98
